The values below are quoted from earlier work in US20200289553A1, “Compositions and Methods for the Treatment of Metabolic Conditions” (REVEN IP HOLDCo LLC, priority 2017, published 2020).

The conditions of data set [1]: 241 osteoporotic women, 45 mg/day vitamin K2 and 150 mg elemental calcium, after two years.
The conditions of data set [2]: rabbits.
For data set [3] the following is noted: rats, 100 mg/kg body weight daily.

In the case of `CC(C)=CCC/C(C)=C/CC/C(C)=C/CC/C(C)=C/CC1=C(C)C(=O)c2ccccc2C1=O` [vitamin K2], in data set [1], the “lumbar bone mineral density” value was “maintain lumbar bone mineral density”. Moreover, the fracture incidence in data set [1] (30% in the control group) is 10%. In data set [2] (1-10 mg/kg daily for 10 weeks), the atherosclerotic plaque progression result was “inhibited the atherosclerotic plaque progression in the aorta and pulmonary arteries”. Besides, in data set [2] (compared to the control group), the “total cholesterol levels, lipid peroxidation, ester cholesterol deposition in the aorta and factor X activity in plasma” value is “seen to reduce”. Moreover, the “calcium in kidneys and aorta induced by megadose of synthetic vitamin D” value in data set [3] is “inhibited the increase in calcium in both kidneys and aorta”.
